Read-outs that look alike come from different tables or passages of the source.
Key:
[1] = US 20210169852 A; cited from earlier work
H1437 (NSCLC) cells = assay: Inhibition of H1437 cells by compounds; type: cell-based; details: PY-X (DXD) set to 1
Experimental: (§1) On the day of the experiment, the cells were digested with 0.25% trypsin (Gibco, 25200-072), filtered through a 40 μm sieve, diluted with the corresponding medium to a cell density of 1×10^4 cells/mL, and inoculated into a 96-well white cell culture plate (Beyotime, FCP968), with 100 μL of cells added per well. The culture plate was placed in a 37° C. incubator (Thermo 311) containing 5% C02 and incubated for 24 hours. On the second day, the samples to be tested were prepared as a stock solution at a final concentration of 1M in DMSO (Sigma, D1650), then diluted with the corresponding medium to a final concentration of 200 nM, and subjected to four-fold serial dilutions, resulting in a total of 9 concentrations. 100 μL of the diluted sample was added to each well of the 96-well plate. The plate was placed in a 37° C. incubator containing 5% CO2 and incubated for 144 hours. The cell culture plate was then removed, and 100 μL of the cell viability assay reagent (CellTiter-Glo® Luminescent Cell Viability Assay, Promega, G7571) was added to each well. The reaction was carried out in the dark at room temperature for 5 minutes. Luminescence values were read using a microplate reader (TECAN SPARK), and data were processed using Graphpad Prism 7 software.

A549 (NSCLC) cells = assay: Inhibition of A549 cells by compounds; type: cell-based; details: PY-X (DXD) set to 1
Experimental: as §1

H82 (SCLC) cells = assay: Inhibition of H82 cells by compounds; type: cell-based; details: PY-X (DXD) set to 1
Experimental: as §1

[2] = system: MDA-MB-468 breast cancer cells; assay: Inhibitory activity of compounds on MDA-MB-468 breast cancer cells (CellTiter-Glo); type: cell-based; details: samples retested together; ratio of measured IC50 to DXD
Experimental: as §1
(§2) PY—Y is referenced in the document (WO2022170971A1); and PY-A is referenced in the document (WO2021148501A1).

SW1573 (NSCLC) cells = assay: Inhibition of SW1573 cells by compounds; type: cell-based; details: PY-X (DXD) set to 1
Experimental: as §1

[3] = Log D of small molecules (1-octanol / phosphate buffer pH 2.5 and pH 7.4, LC-MS/MS); type: physicochemical
Experimental: (1) Preparation of 100 mM phosphate buffer (PB) solution at pH 2.5 and pH 7.4 respectively: • a. Preparation of a solution of 100 mM H3PO4 in water: 14.7 M H3PO4 was diluted with water to a concentration of 100 mM H3PO4, and the pH was measured to be approximately 1.8. • b. Preparation of 100 mM NaH2PO4: 5.999 g of NaH2PO4 was dissolved in 500 mL of water and the pH was measured to be approximately 4.5. • c. Preparation of 100 mM Na2HPO4: 7.098 g of Na2HPO4 was dissolved in water to a volume of 500 mL and the pH was measured to be approximately 9.4. • d. Preparation of 100 mM PB (pH 2.5): 15 mL of 100 mM H3PO4 was added to a 50 mL tube, and then pH was adjusted to 2.5±0.05 with 100 mM NaH2PO4. • d. Preparation of 100 mM PB (pH 7.4): 15 mL of 100 mM Na2HPO4 was added to a 50 mL tube, and then pH was adjusted to 7.4±0.05 with 100 mM NaH2PO4.
(2) Saturation of PBs (pH 2.5 and pH 7.4) with 1-octanol: 10 mL of 1-octanol was added to 100 mL of 100 mM PBs (pH 2.5 and pH 7.4), and the mixture was shaken vigorously, and then allowed to stand overnight at room temperature for later use.
(3) Saturation of 1-octanol with PBs (pH 2.5 and pH 7.4): 10 mL of 100 mM PBs (pH 2.5 and pH 7.4) was added to 100 mL of 1-octanol, and the mixture was shaken vigorously, and then allowed to stand overnight at room temperature for later use.
2.1) 2 μL of 10 mM DMSO stock solution of the test compound were dispensed into test tubes, in duplicate.
2.2) 149 μL of PB saturated with 1-octanol (pH 2.5 and 7.4) were added to the tubes.
2.3) 149 μL of PB (pH 2.5 and 7.4) saturated with 1-octanol were added to the corresponding tubes.
2.4) Each tube was vigorously mixed for 2 minutes, then shaken at 800 rpm for 1 hour at room temperature.
2.5) The tubes were centrifuged at 4000 rpm for 5 minutes at room temperature.
2.6) Appropriate volumes of the buffer phase and 1-octanol phase samples were aliquoted.
2.7) These samples were diluted and analyzed using LC-MS/MS without running a calibration curve.
2.8) Data analysis: The log D value of each compound was calculated using the following formula: f

[4] = system: PANC-1 (Pancreatic) cells; assay: Inhibition of PANC-1 cells by compounds; type: cell-based; details: PY-X (DXD) set to 1
Experimental: as §1

[5] = system: SW1990 (Pancreatic) cells; assay: Inhibition of SW1990 cells by compounds; type: cell-based; details: PY-X (DXD) set to 1
Experimental: as §1

H1650 (NSCLC) cells = assay: Inhibition of H1650 cells by compounds; type: cell-based; details: PY-X (DXD) set to 1
Experimental: as §1

Colo-205 (Colon) cells = assay: Inhibition of Colo-205 cells by compounds; type: cell-based; details: PY-X (DXD) set to 1
Experimental: as §1

N87 gastric cancer cells = assay: Inhibitory activity of compounds on N87 gastric cancer cells (CellTiter-Glo, 144 h); type: cell-based; details: samples retested together; ratio of measured IC50 to DXD
Experimental: as §1, §2

HT-29 (Colon) cells = assay: Inhibition of HT-29 cells by compounds; type: cell-based; details: PY-X (DXD) set to 1
Experimental: as §1

DMS53 (SCLC) cells = assay: Inhibition of DMS53 cells by compounds; type: cell-based; details: PY-X (DXD) set to 1
Experimental: as §1

Compound | times less active than exatecan [1] | IC50 in H1437 cells, ratio to DXD (H1437 (NSCLC) cells) | IC50 in A549 cells, ratio to DXD (A549 (NSCLC) cells) | IC50 in H82 cells, ratio to DXD (H82 (SCLC) cells) | IC50 on 468 cells, ratio to DXD (retest) [2] | IC50 in SW1573 cells, ratio to DXD (SW1573 (NSCLC) cells) | logD ([3]; 1-octanol / phosphate buffer pH 2.5, read-out: Log D2.5 (Oct/buff) Result) | logD ([3]; 1-octanol / phosphate buffer pH 7.4, read-out: Log D7.4 (Oct/buff) Result) | solubility in n-octanol compared with PY-4Car, PY-4Car3C and DXD ([3]; different pH values (2.5 and 7.4)) | IC50 in PANC-1 cells, ratio to DXD [4] | IC50 in SW1990 cells, ratio to DXD [5] | IC50 in H1650 cells, ratio to DXD (H1650 (NSCLC) cells) | IC50 in Colo-205 cells, ratio to DXD (Colo-205 (Colon) cells) | IC50 on N87 cells, ratio to DXD (retest) (N87 gastric cancer cells) | IC50 in HT-29 cells, ratio to DXD (HT-29 (Colon) cells) | IC50 in DMS53 cells, ratio to DXD (DMS53 (SCLC) cells) | logD ([3]; pH 2.5) | logD ([3]; pH 7.4)
CC[C@@]1(O)C(=O)OCc2c1cc1n(c2=O)Cc2c-1nc1cc(F)c(C)c3c1c2[C@@H](NC(=O)CO)CC3 [DXd] | 2-4 |  |  |  |  |  |  |  |  |  |  |  |  |  |  |  |  | 
CC[C@@]1(O)C(=O)OCc2c1cc1n(c2=O)Cc2c-1nc1cc(F)c(C)c3c1c2[C@@H](NC(=O)OCCCCO)CC3 [PY-4Car2, 4-hydroxybutyl((1S,9S)-9-ethyl-5-fluoro-9-hydroxy-4-methyl-10,13-dioxo-2,3,9,10,13,15-hexahydro-1H,12H-benzo[de]pyrano[3′,4′:6,7]indolizino[1,2-b]quinolin-1-yl)carbamate] |  | 0.9590 | 0.5433 | 0.5803 | 0.8170 | 0.4766 | 2.44 | 2.43 | belier solubility in n-octanol | 0.4865 | 0.3573 | 0.7384 | 0.4478 | 0.5046 | 0.4854 |  |  | 
CC[C@@]1(O)C(=O)OCc2c1cc1n(c2=O)Cc2c-1nc1cc(F)c(C)c3c1c2[C@@H](NC(=O)OCCO)CC3 [PY-4Car, 2-hydroxyethyl((1S,9S)-9-ethyl-5-fluoro-9-hydroxy-4-methyl-10,13-dioxy-2,3,9,10,13,15-hexahydro-1H,12H-benzo[de]pyran[3′,4:6,7]indolizino[1,2-b]quinolin-1-yl)carbamate] |  | 0.6526 | 0.4832 | 0.4523 | 0.5193 | 0.3187 |  |  |  | 0.4763 | 0.4822 | 0.4491 | 0.2923 | 0.3112 | 0.3312 | 0.5151 | 2.1 | 2.09

— US20260199500A1, “Camptothecin Derivative, Conjugate Thereof, Preparation Method Therefor and Medical Use Thereof” (priority 2023, published 2026)
